Values after ≈ are worked out from the molar mass of the structure shown.
Assays:
LYSA solubility assay = format: physicochemical; conditions: for solubility thermodynamic: 0.05 M phosphate buffer, pH 6.5, aqueous buffer, thermodynamic from solid; for LYSA: 0.05 M phosphate buffer (pH 6.5)
Experimental: LYSA study is used to determine the aqueous solubility of tested compounds. Samples are prepared in duplicate from 10 mM DMSO stock solution. After evaporation of DMSO with a centrifugal vacuum evaporator, compounds are dissolved in a 0.05 M phosphate buffer (pH 6.5), stirred for one hr and shaken for two hrs. After one night, the solutions are filtered using a microtiter filter plate. Then the filtrate and its 1/10 dilution are analyzed by HPLC-UV. In addition, a four-point calibration curve is prepared from the 10 mM stock solutions and used for the solubility determination of the compounds. The results are in μg/mL. In case the percentage of sample measured in solution after evaporation divided by the calculated maximum of sample amount is bigger than 80%, the solubility is reported as bigger than this value.

human TLR8 = target: T1, human TLR8 (Homo sapiens, UniProt Q9NR97); assay: HEK293-Blue-hTLR-8 cells assay (SEAP reporter, R848 stimulation); format: cell-based; conditions: HEK293-Blue-hTLR8 cells, R848, 20 hrs
T1 construct: host or cells: HEK293 (HEK-Blue hTLR8)
T1 sequence (Q9NR97 27-1041): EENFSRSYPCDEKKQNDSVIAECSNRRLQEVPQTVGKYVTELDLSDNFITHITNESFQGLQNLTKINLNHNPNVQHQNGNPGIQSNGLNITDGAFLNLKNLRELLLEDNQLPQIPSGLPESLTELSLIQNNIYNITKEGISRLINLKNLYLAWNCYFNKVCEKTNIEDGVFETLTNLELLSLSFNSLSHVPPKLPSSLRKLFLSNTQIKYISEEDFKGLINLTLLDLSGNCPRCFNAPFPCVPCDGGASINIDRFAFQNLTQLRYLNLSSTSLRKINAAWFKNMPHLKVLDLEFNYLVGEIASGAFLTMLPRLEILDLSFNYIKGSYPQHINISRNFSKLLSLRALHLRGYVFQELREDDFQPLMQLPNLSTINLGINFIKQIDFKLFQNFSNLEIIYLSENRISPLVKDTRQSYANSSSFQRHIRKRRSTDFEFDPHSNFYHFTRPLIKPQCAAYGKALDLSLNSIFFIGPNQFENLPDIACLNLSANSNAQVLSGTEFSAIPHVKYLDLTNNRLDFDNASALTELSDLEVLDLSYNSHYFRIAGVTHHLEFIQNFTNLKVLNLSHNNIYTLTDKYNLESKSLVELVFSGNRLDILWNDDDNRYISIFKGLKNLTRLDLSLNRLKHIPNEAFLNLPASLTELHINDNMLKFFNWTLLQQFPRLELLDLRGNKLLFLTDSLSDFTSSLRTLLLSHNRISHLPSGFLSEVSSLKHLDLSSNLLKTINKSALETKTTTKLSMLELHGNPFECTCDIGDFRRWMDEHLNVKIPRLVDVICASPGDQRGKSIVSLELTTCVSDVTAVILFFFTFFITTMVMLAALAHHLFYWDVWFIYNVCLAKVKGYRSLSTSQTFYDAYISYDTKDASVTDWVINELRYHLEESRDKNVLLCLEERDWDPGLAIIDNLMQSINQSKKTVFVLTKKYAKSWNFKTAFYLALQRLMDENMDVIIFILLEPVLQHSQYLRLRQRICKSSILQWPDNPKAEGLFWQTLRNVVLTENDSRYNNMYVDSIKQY
Experimental: The following tests were carried out in order to determine the activity of the compounds of formula (I) in HEK293-Blue-hTLR-7/8/9 cells assay.
HEK293-Blue-hTLR-8 Cells Assay:
A stable HEK293-Blue-hTLR-8 cell line was purchased from InvivoGen (Cat. #: hkb-htlr8, San Diego, Calif., USA). These cells were originally designed for studying the stimulation of human TLR8 by monitoring the activation of NF-κB. A SEAP (secreted embryonic alkaline phosphatase) reporter gene was placed under the control of the IFN-β minimal promoter fused to five NF-κB and AP-1-binding sites. The SEAP was induced by activating NF-κB and AP-1 via stimulating HEK-Blue hTLR8 cells with TLR8 ligands. Therefore the reporter expression was declined by TLR8 antagonist under the stimulation of a ligand, such as R848, for incubation of 20 hrs. The cell culture supernatant SEAP reporter activity was determined using QUANTI-Blue™ kit (Cat #. rep-qbl, Invivogen, San Diego, Calif., USA) at a wavelength of 640 nm, a detection medium that turns purple or blue in the presence of alkaline phosphatase.
HEK293-Blue-hTLR8 cells were incubated at a density of 250,000˜450,000 cells/mL in a volume of 170 μL in a 96-well plate in Dulbecco's Modified Eagle's medium (DMEM) containing 4.5 g/L glucose, 50 U/mL penicillin, […], […], 2 mM L-glutamine, 10% (v/v) heat-inactivated fetal bovine serum with addition of 20 μL test compound in a serial dilution in the presence of final DMSO at 1% and 10 μL of 60 μM R848 in above DMEM, perform incubation under 37° C. in a CO2 incubator for 20 hrs. Then 20 μL of the supernatant from each well was incubated with 180 μL Quanti-blue substrate solution at 37° C. for 2 hrs and the absorbance was read at 620˜655 nm using a spectrophotometer. The signalling pathway that TLR8 activation leads to downstream NF-KB activation has been widely accepted, and therefore similar reporter assay was modified for evaluating TLR8 antagonist.

| solubility thermodynamic (LYSA solubility assay) [µg/mL] | IC50 (human TLR8) [nM] | LYSA (LYSA solubility assay) [µg/mL] | Structure (SMILES) |
| --- | --- | --- | --- |
| > 600 | 43 |  | C[C@@H]1CN(c2ccc(C(F)(F)F)c3ncccc23)C[C@H](C(=O)NC2C[C@H]3C[C@@H]2CN3)O1 (stereo partly drawn) [Example 44] |
| > 625 | 8 |  | C[C@@H]1CN(c2ccc(C(F)(F)F)c3ncccc23)C[C@H](C(=O)N[C@H]2CNC[C@H]2F)O1 (single isomer, unassigned) [Example 2B] |
| > 650 | 16 |  | C[C@@H]1CN(c2ccc(C(F)(F)F)c3ncccc23)C[C@H](C(=O)NC2C3CNCC2COC3)O1 (single isomer, unassigned) [Example 46A] |
| 555 (≈ 1150 µM) | < 3 |  | C[C@@H]1CN(c2ccc(I)c3ncccc23)C[C@H](C(=O)NC2CNCC2F)O1 (stereo partly drawn) [Example 40, cis-(2R,6R)-N-[4-fluoropyrrolidin-3-yl]-4-(8-iodo-5-quinolyl)-6-methyl-morpholine-2-carboxamide] |
| > 475 | < 3 |  | C[C@@H]1CN(c2ccc(Cl)c3ncccc23)C[C@H](C(=O)NC2CCN(C)CC2)O1 [Example 24, (2R,6R)-4-(8-chloro-5-quinolyI)-6-methyl-N-(1-methyl-4-piperidyl)morpholine-2-carboxamide] |
| > 695 | 7 |  | C[C@@H]1CN(c2ccc(C(F)(F)F)c3ncccc23)C[C@H](C(=O)NC2CNCCOC2)O1 (stereo partly drawn) [Example 14, (2R,6R)-6-methyl-N-(1,4-oxazepan-6-yl)-4-[8-(trifluoromethyl)-5-quinolyl]morpholine-2-carboxamide] |
| > 315 | 4 |  | C[C@H]1C[C@@H](N)CN(c2ccc(Cl)c3ncccc23)C1 [Example 23, (3R,5S)-1-(8-chloro-5-quinolyl)-5-methyl-piperidin-3-amine] |
|  | 5 | >710.0 | C[C@@H]1CN(c2ccc(C(F)(F)F)c3ncccc23)C[C@H](C(=O)NC2CC3CNCC32)O1 (single isomer, unassigned) [Example 49C] |
| > 595 | 25 |  | C[C@@H]1CN(c2ccc(C(F)(F)F)c3ncccc23)C[C@H](C(=O)N2CCC3(CCNC3)C2)O1 (stereo partly drawn) [Example 36] |
|  | < 3 | >625.0 | CC(NC(=O)[C@H]1CN(c2ccc(C(F)(F)F)c3ncccc23)C[C@@H](C)O1)C1CN(C)CCO1 (single isomer, unassigned) [Example 35B] |
| > 655 | 29 |  | C[C@@H]1CN(c2ccc(C(F)(F)F)c3ncccc23)C[C@H](C(=O)N2CCC(N)C2)O1 (stereo partly drawn) [Example 10, (3-aminopyrrolidin-1-yl)-[(2R,6R)-6-methyl-4-[8-(trifluoromethyl)-5-quinolyl]morpholin-2-yl]methanone] |
| > 660 | 22 |  | C[C@@H]1CN(c2ccc(C(F)(F)F)c3ncccc23)C[C@H](C(=O)NC2CC3CNCC32)O1 (single isomer, unassigned) [Example 49A] |
|  | 9 | >690.0 | C[C@@H]1CN(c2ccc(C(F)(F)F)c3ncccc23)C[C@H](C(=O)NC2CC3CNCC32)O1 (single isomer, unassigned) [Example 49B] |
| > 455 | 19 |  | C[C@@H]1CN(c2ccc(Cl)c3ncccc23)C[C@H](C(=O)N[C@H]2CNC[C@H]2F)O1 [Example 22, (2R,6R)-4-(8-chloro-5-quinolyl)-N-[(3S,4R)-4-fluoropyrrolidin-3-yl]-6-methyl-morpholine-2-carboxamide] |
| > 485 | 25 |  | Cc1ccc(N2C[C@@H](C)O[C@@H](C(=O)NCC3CN(C)CCO3)C2)c2cccnc12 (stereo partly drawn) [Example 17, (2R,6R)-6-methyl-N-[(4-methylmorpholin-2-yl)methyl]-4-(8-methyl-5-quinolyl)morpholine-2-carboxamide] |
|  | 55 | >667.0 | C[C@@H]1CN(c2ccc(C(F)(F)F)c3ncccc23)C[C@H](C(=O)NC2C3CNCC2COC3)O1 (single isomer, unassigned) [Example 46B] |
| > 665 | 5 |  | C[C@@H]1CN(c2ccc(C(F)(F)F)c3ncccc23)C[C@H](C(=O)N2CCC(N)CC2)O1 [Example 12, (4-amino-1-piperidyl)-[(2R,6R)-6-methyl-4-[8-(trifluoromethyl)-5-quinolyl]morpholin-2-yl]methanone] |
| > 660 | 6 |  | C[C@@H]1CN(c2ccc(C(F)(F)F)c3ncccc23)C[C@H](C(=O)NC2CC3CNCC(C3)C2)O1 (stereo partly drawn) [Example 37, (2R,6R)-N-(3-azabicyclo[3.3.1]nonan-7-yl)-6-methyl-4-[8-(trifluoromethyl)-5-quinolyl]morpholine-2-carboxamide] |
| > 680 | < 3 |  | C[C@@H]1CN(c2ccc(C(F)(F)F)c3ncccc23)C[C@H](C(=O)NC2CCCNCC2)O1 (stereo partly drawn) [Example 8, (2R,6R)-N-(azepan-4-yl)-6-methyl-4-[8-(trifluoromethyl)-5-quinolyl]morpholine-2-carboxamide] |
| > 585 | 21 |  | C[C@@H]1CN(c2ccc(C(F)(F)F)c3ncccc23)C[C@H](C(=O)NC[C@@H]2C[C@@H](F)CN2)O1 [Example 27, (2R,6R)-N-[[(2S,4R)-4-fluoropyrrolidin-2-yl]methyl]-6-methyl-4-[8-(trifluoromethyl)-5-quinolyl]morpholine-2-carboxamide] |

| Structure (SMILES) | solubility thermodynamic (LYSA solubility assay) [µg/mL] | IC50 (human TLR8) [nM] | LYSA (LYSA solubility assay) [µg/mL] |
| --- | --- | --- | --- |
| C[C@@H]1CN(c2ccc(C(F)(F)F)c3ncccc23)C[C@H](C(=O)NC2CC3CCCC(C2)N3)O1 (single isomer, unassigned) [Example 34B] |  | 6 | >610.0 |
| C[C@@H]1CN(c2ccc([N+](=O)[O-])c3ncccc23)C[C@H](C(=O)NC2CCN(C)CC2)O1 [Example 20, (2R,6R)-6-methyl-N-(1-methyl-4-piperidyl)-4-(8-nitro-5-quinolyl)morpholine-2-carboxamide] | > 515 | < 3 |  |
| C[C@@H]1CN(c2ccc([N+](=O)[O-])c3ncccc23)C[C@H](C(=O)N[C@@H]2CNC[C@@H]2F)O1 [Example 19, cis-(2R,6R)-N-[41-fluoropyrrolidin-3-yl]-6-methyl-4-(8-nitro-5-quinolyl)morpholine-2-carboxamide] | > 510 | < 3 |  |
| C[C@@H]1CN(c2ccc(C(F)(F)F)c3ncccc23)C[C@H](C(=O)NC2CC3CCCC(C2)N3)O1 (single isomer, unassigned) [Example 34A] | > 620 | < 3 |  |

— patent publication US20220363665A1, “QUINOLINE COMPOUNDS FOR THE TREATMENT OF AUTOIMMUNE DISEASE” (Hoffmann-La Roche Inc., priority 2019, published 2022)
